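Dose response: 5 concentrations. Exposure: 48 h. Format: 96-well plates. Endpoint: linear interpolation; highest concentration if not reached. GI50: concentration for 50% inhibition of growth.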 Calls of active or inactive are those of the source. Cut-off read from the data, not from the text of the source: active = GI50 up to about 1.1 µM and inactive = higher.
How the values were obtained:
Test in all cases: NCI-60 cell line screen, 48 h
DLD-1 = tested on: DLD-1
DMS-114 = tested on: DMS-114
HOP-18 = tested on: HOP-18
M19-MEL = tested on: M19-MEL
XF498 = tested on: XF498
KM-20L2 = tested on: KM-20L2
LXFL 529 = tested on: LXFL 529
RXF 631 = tested on: RXF 631
SNB-78 = tested on: SNB-78

COC(=O)/C1=C/C2CC(/C=C(/c3ccccc3)C(=O)O1)C2
GI50 (DLD-1): 22.8 µM (inactive) | GI50 (DMS-114): 19 µM (inactive) | GI50 (HOP-18): 27.5 µM (inactive) | GI50 (M19-MEL): 23.1 µM (inactive) | GI50 (XF498): 22 µM (inactive)

C/C(CC(=O)Nc1cccc(C)c1C)=N\NC(N)=S
GI50 (DLD-1): > 100 µM (inactive) | GI50 (DMS-114): 41.7 µM (inactive) | GI50 (HOP-18): > 100 µM (inactive) | GI50 (KM-20L2): > 100 µM (inactive) | GI50 (LXFL 529): > 100 µM (inactive) | GI50 (M19-MEL): > 100 µM (inactive) | GI50 (RXF 631): 91.2 µM (inactive) | GI50 (SNB-78): > 100 µM (inactive) | GI50 (XF498): > 100 µM (inactive)

CC(C)c1ccc(C2C3=C(N=C4SCC(=O)N42)C(=O)c2ccccc23)cc1 (stereo not drawn)
GI50 (DLD-1): 81.8 µM (inactive) | GI50 (DMS-114): 53.5 µM (inactive) | GI50 (KM-20L2): > 100 µM (inactive) | GI50 (LXFL 529): 52.4 µM (inactive) | GI50 (M19-MEL): 83.4 µM (inactive) | GI50 (RXF 631): > 100 µM (inactive) | GI50 (XF498): 87.3 µM (inactive)

CC(C)(C)C1CCC2c3c([nH]c4ccccc34)C3C(=O)N(c4ccc(Br)cc4)C(=O)C3C2C1 (stereo not drawn)
GI50 (DLD-1): 41.4 µM (inactive) | GI50 (DMS-114): 19 µM (inactive) | GI50 (HOP-18): 52.4 µM (inactive) | GI50 (KM-20L2): 15.1 µM (inactive) | GI50 (LXFL 529): 21.7 µM (inactive) | GI50 (M19-MEL): 16.8 µM (inactive) | GI50 (SNB-78): 26.4 µM (inactive) | GI50 (XF498): 38.4 µM (inactive)

CO[C@H]1C[C@](C)(O)Cc2cc3c(c(O)c21)C(=O)c1c(O)cc2c(c1C3=O)O[C@@H]1O[C@@]2(C)[C@H](O)[C@@H](N(C)C)[C@@H]1O
GI50 (DLD-1): 2.81 µM (inactive) | GI50 (DMS-114): 0.456 µM (active) | GI50 (HOP-18): 0.859 µM (active) | GI50 (KM-20L2): 2.89 µM (inactive) | GI50 (LXFL 529): 1.96 µM (inactive) | GI50 (M19-MEL): 1.11 µM (active) | GI50 (RXF 631): 0.902 µM (active) | GI50 (SNB-78): 3.87 µM (inactive) | GI50 (XF498): 0.147 µM (active)

O=C(c1cc(=O)c2ccc(O)cc2o1)c1ccc(Cl)cc1Cl
GI50 (DLD-1): 17.4 µM (inactive) | GI50 (DMS-114): 3.92 µM (inactive) | GI50 (HOP-18): 29.4 µM (inactive) | GI50 (KM-20L2): 10.6 µM (inactive) | GI50 (M19-MEL): 13.8 µM (inactive) | GI50 (RXF 631): 11.1 µM (inactive) | GI50 (SNB-78): 31.3 µM (inactive) | GI50 (XF498): 26.8 µM (inactive)

Cc1cccc(C(C)(C)C)c1NC(=O)C(=O)Cc1nc2ccccc2s1
GI50 (DLD-1): > 100 µM (inactive) | GI50 (DMS-114): > 100 µM (inactive) | GI50 (HOP-18): > 100 µM (inactive) | GI50 (KM-20L2): > 100 µM (inactive) | GI50 (LXFL 529): > 100 µM (inactive) | GI50 (M19-MEL): > 100 µM (inactive) | GI50 (RXF 631): > 100 µM (inactive) | GI50 (SNB-78): > 100 µM (inactive)

COc1nc(=O)cc(N)n1C1OC(CO)C(O)C1O (stereo not drawn)
GI50 (DLD-1): > 100 µM (inactive) | GI50 (DMS-114): > 100 µM (inactive) | GI50 (KM-20L2): > 100 µM (inactive) | GI50 (LXFL 529): > 100 µM (inactive) | GI50 (M19-MEL): > 100 µM (inactive) | GI50 (SNB-78): > 100 µM (inactive)

CC(C)(C)CC(C)(C)c1cc2c(O)c(c1)Cc1cc(C(C)(C)CC(C)(C)C)cc(c1O)Cc1cc(C(C)(C)CC(C)(C)C)cc(c1O)Cc1cc(C(C)(C)CC(C)(C)C)cc(c1O)Cc1cc(C(C)(C)CC(C)(C)C)cc(c1O)Cc1cc(C(C)(C)CC(C)(C)C)cc(c1O)Cc1cc(C(C)(C)CC(C)(C)C)cc(c1O)Cc1cc(C(C)(C)CC(C)(C)C)cc(c1O)C2
GI50 (DLD-1): > 100 µM (inactive) | GI50 (KM-20L2): > 100 µM (inactive) | GI50 (LXFL 529): > 100 µM (inactive) | GI50 (M19-MEL): > 100 µM (inactive) | GI50 (SNB-78): > 100 µM (inactive) | GI50 (XF498): > 100 µM (inactive)

N#C/C(=C/c1ccc([N+](=O)[O-])o1)c1ccccc1
GI50 (DLD-1): > 100 µM (inactive) | GI50 (DMS-114): > 100 µM (inactive) | GI50 (HOP-18): > 100 µM (inactive) | GI50 (KM-20L2): > 100 µM (inactive) | GI50 (LXFL 529): > 100 µM (inactive) | GI50 (M19-MEL): > 100 µM (inactive) | GI50 (SNB-78): > 100 µM (inactive)

Cc1cc(NS(=O)(=O)c2ccc(Nc3c4ccccc4nc4c(C(=O)Nc5ccc(S(N)(=O)=O)cc5)cccc34)cc2)no1
GI50 (DLD-1): > 100 µM (inactive) | GI50 (DMS-114): 28.5 µM (inactive) | GI50 (HOP-18): > 100 µM (inactive) | GI50 (KM-20L2): > 100 µM (inactive) | GI50 (LXFL 529): 21.1 µM (inactive) | GI50 (M19-MEL): 25.1 µM (inactive) | GI50 (SNB-78): 23.9 µM (inactive) | GI50 (XF498): 20.9 µM (inactive)

C=C(c1ccccc1N)[C@@]1(O)C[C@H](/C(=C\C)CO)C[C@@H]1NCc1ccccc1
GI50 (DMS-114): 17 µM (inactive) | GI50 (HOP-18): 20.4 µM (inactive) | GI50 (KM-20L2): 17.3 µM (inactive) | GI50 (M19-MEL): 23.6 µM (inactive) | GI50 (SNB-78): 25.2 µM (inactive)

CC1OC(n2cc(Cl)c(=O)[nH]c2=O)C=C(OC(=O)c2ccccc2)C1=O (stereo not drawn)
GI50 (DLD-1): > 100 µM (inactive) | GI50 (DMS-114): > 100 µM (inactive) | GI50 (HOP-18): > 100 µM (inactive) | GI50 (KM-20L2): > 100 µM (inactive) | GI50 (M19-MEL): > 100 µM (inactive) | GI50 (RXF 631): > 100 µM (inactive) | GI50 (SNB-78): > 100 µM (inactive) | GI50 (XF498): > 100 µM (inactive)

S=P(c1ccccc1)(c1ccccc1)C1(C2(P(=S)(c3ccccc3)c3ccccc3)CC2)CC1
GI50 (DLD-1): > 100 µM (inactive) | GI50 (DMS-114): > 100 µM (inactive) | GI50 (KM-20L2): > 100 µM (inactive) | GI50 (LXFL 529): > 100 µM (inactive) | GI50 (M19-MEL): > 100 µM (inactive) | GI50 (RXF 631): > 100 µM (inactive) | GI50 (SNB-78): > 100 µM (inactive) | GI50 (XF498): > 100 µM (inactive)

O=C(CSc1nc(-c2ccccc2)c(-c2ccccc2)[nH]1)N/N=C/c1ccc(O)cc1
GI50 (DLD-1): 36.7 µM (inactive) | GI50 (DMS-114): 22.1 µM (inactive) | GI50 (HOP-18): 12.2 µM (inactive) | GI50 (KM-20L2): 24.5 µM (inactive) | GI50 (LXFL 529): 30.5 µM (inactive) | GI50 (M19-MEL): 19.4 µM (inactive) | GI50 (SNB-78): 37.9 µM (inactive) | GI50 (XF498): 28.5 µM (inactive)

O=S(=O)(/C=C/C(=C/c1ccccc1)S(=O)(=O)c1ccccc1)c1ccccc1
GI50 (DMS-114): 1.57 µM (inactive) | GI50 (LXFL 529): 1.7 µM (inactive) | GI50 (RXF 631): 1.07 µM (active) | GI50 (XF498): 1.7 µM (inactive)

O=C(NC(c1ccccc1)C(O)C(=O)OCc1ccc2c(c1)C(=O)c1ccccc1C2=O)c1ccccc1 (stereo not drawn)
GI50 (DLD-1): 21.2 µM (inactive) | GI50 (DMS-114): 12.6 µM (inactive) | GI50 (HOP-18): 3.56 µM (inactive) | GI50 (KM-20L2): > 51.2 µM (inactive) | GI50 (LXFL 529): 44.7 µM (inactive) | GI50 (M19-MEL): 53.6 µM (inactive) | GI50 (RXF 631): 30.5 µM (inactive) | GI50 (SNB-78): 56.6 µM (inactive) | GI50 (XF498): 16 µM (inactive)

Cc1cc(NS(=O)(=O)c2ccc(NC(=O)c3cccc4c(N)c5ccccc5nc34)cc2)no1
GI50 (DLD-1): 30.6 µM (inactive) | GI50 (DMS-114): 22.2 µM (inactive) | GI50 (KM-20L2): 34.1 µM (inactive) | GI50 (LXFL 529): 32 µM (inactive) | GI50 (M19-MEL): 21.2 µM (inactive) | GI50 (RXF 631): 18.4 µM (inactive) | GI50 (SNB-78): 27.5 µM (inactive) | GI50 (XF498): 21.8 µM (inactive)

COc1cc(Nc2nc3cc(C)ccc3nc2-c2ccccc2)cc(OC)c1OC
GI50 (DMS-114): 6.9 µM (inactive) | GI50 (HOP-18): 24.3 µM (inactive) | GI50 (KM-20L2): 30.5 µM (inactive) | GI50 (LXFL 529): 39.7 µM (inactive) | GI50 (M19-MEL): 24.2 µM (inactive) | GI50 (XF498): 19.7 µM (inactive)

COC(=O)c1cccc2cccc(C(=O)Nc3ccc(Cl)cc3)c12
GI50 (DLD-1): > 21.7 µM (inactive) | GI50 (DMS-114): 14.8 µM (inactive) | GI50 (HOP-18): > 100 µM (inactive) | GI50 (KM-20L2): > 24.2 µM (inactive) | GI50 (LXFL 529): 0.474 µM (active) | GI50 (M19-MEL): 4.35 µM (inactive) | GI50 (RXF 631): > 86.1 µM (inactive) | GI50 (SNB-78): 56.1 µM (inactive) | GI50 (XF498): > 73.3 µM (inactive)

C#CCN(N=O)C(=O)NCCCCC(NC(=O)OCc1ccccc1)C(=O)OCc1ccccc1 (stereo not drawn)
GI50 (DLD-1): 29 µM (inactive) | GI50 (HOP-18): > 100 µM (inactive) | GI50 (KM-20L2): > 100 µM (inactive) | GI50 (LXFL 529): 19.1 µM (inactive) | GI50 (M19-MEL): 23.3 µM (inactive) | GI50 (SNB-78): 46.2 µM (inactive) | GI50 (XF498): 29.9 µM (inactive)
